# Experimental data taken from paper PMC6465301, “Enzyme-responsive progelator cyclic peptides for minimally invasive delivery to the heart post-myocardial infarction” (Nature Communications, 2019).
# Bridge positions count the residues as written; N and C are the ends. Peptide text beside a SMILES is read from it.
# Experiments:
# [1] = test system: platelet-poor plasma (PPP)
# Protocol: For all measurements, peptide stocks in 1× DPBS were prepared such that the final concentrations (v/v) in blood or plasma were 1:10, 1:100, 1:500,1:1000, 1:5000, 1:10,000, and 1:20,000 (peptide/fluid volume). Controls with collagen as a procoagulant initial platelet-adhesive surface (0.095 mg mL^−1 or 1:240 dilution) or with calcium chelated by sodium citrate utilized 1× DPBS as a vehicle to ensure consistent blood dilution in all experiments. Peptide stocks, whole human blood, isolated RBCs, and PPP were warmed to 37 °C immediately prior to use. Plate reader measurements were conducted on an EnSpire Multimode Plate Reader with 96-well tissue culture plates (TCP).
# PPP was isolated from citrated whole human blood through two rounds of centrifugation at 2000 × g for 10 min and collection of the upper two-third layer. Briefly, 100 µL of PPP, 50 µL of peptide stock or additive (4× final concentration), and 50 µL of CaCl2 (50 mM) were mixed and added to a 96-well plate and incubated at 37 °C for kinetics measurements. For each sample, n = 6 repeats were conducted. Coagulation profiles were obtained by measuring well absorbance at 405 nm at 30 s intervals for 60 min. Onset to clotting was detected as a sharp increase in sample turbidity.
# thermolysin = target: T1, thermolysin (Bacillus thermoproteolyticus, UniProt P00800); test: Time course rheology of thermolysin-induced bulk gelation and gel stability; format: in vitro ADME; settings: 10 mM in 1× DPBS pH 7.4, thermolysin 1:4500, 37 °C, continuous rheological measurement
# T1 construct: purchased Promega V4001
# T1 sequence (P00800 233-548): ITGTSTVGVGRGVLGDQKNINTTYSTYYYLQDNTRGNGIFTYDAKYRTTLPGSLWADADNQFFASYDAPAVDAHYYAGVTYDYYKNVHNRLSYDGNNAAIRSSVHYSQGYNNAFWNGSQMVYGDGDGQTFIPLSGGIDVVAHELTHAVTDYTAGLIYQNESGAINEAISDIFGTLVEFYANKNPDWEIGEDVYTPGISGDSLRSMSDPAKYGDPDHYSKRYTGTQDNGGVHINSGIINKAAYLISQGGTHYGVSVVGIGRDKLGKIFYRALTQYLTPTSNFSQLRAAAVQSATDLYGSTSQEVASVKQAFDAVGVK
# Protocol: All peptide samples were prepared at 10 mM peptide, except for those used to assess the effect of SAP functionalization with respect to weight (15 mg mL^−1). Viscous and viscoelastic properties were assessed using a stress-controlled rheometer (TA Instruments AR-G2) equipped with a Peltier plate to control temperature and a 20 mm diameter parallel plate geometry. Unless otherwise stated all measurements were taken at an angular frequency of 2.5 rad s^−1, strain of 0.5%, and temperature of 37 °C. Measurements were performed with a gap height of 1000 µm and repeated three times (except for step-strain and time course measurements) to ensure reproducibility. To prevent water evaporation, mineral oil was wrapped around the edge of the geometry at the air–sample interface. For viscoelastic measurements the apparatus was used in oscillatory mode. […] The dynamic moduli of the hydrogels were measured as a function of frequency in the range 0.25–100 rad s^−1 at a strain of 0.5%. Continuous step-strain oscillations were used to monitor hydrogel healing through disruption (3 min, 100% strain) and recovery (15 min, 0.5% strain) cycles (n = 3). For viscosity measurements the apparatus was used in steady-state flow mode. The viscosity of the samples was measured as a function of shear rate in the range 0.1–10 s^−1 (5% tolerance). […]
# red blood cells (RBCs) = test: Hemolysis assay of red blood cells; format: cell-based; settings: positive control at 1%, defines 100% hemolysis; human RBCs, 1 h, 37 °C; mean of n = 4
# Protocol: RBCs were isolated by centrifugation of 40 mL citrated whole human blood at 500 × g for 5 min, followed by gentle washes with 150 mM NaCl (×1) and 1× DPBS (×3). Isolated RBCs were diluted 1:50 into 1× DPBS (pH 7.4) and lightly agitated to prevent settling. Briefly, 190 µL of dilute RBCs and 10 µL of peptide stock or additive (20× final concentration) were mixed and added to a 96-well plate (n = 4 repeats), covered, and incubated at 37 °C for 1 h. Plates were centrifuged at 500 × g to pellet intact RBCs using a centrifuge equipped with a microplate rotor. Supernatant (100 µL) was transferred to a new 96-well plate, taking care not to disturb the pellet. Absorbance of the supernatant was measured at 540 nm to detect released hemoglobin. To calculate % hemolysis, absorbances were corrected for background absorbance from untreated vehicle and then normalized to 1% Triton X-100-treated RBCs to represent 100% hemolysis. %Hemolysis was calculated according to the following equation:2 %Hemolysis=Absexperiemental-Absnegativecontrol/Abspositivecontrol-Absnegativecontrol×100, where Absexperiemental is the average well absorbance pertaining to RBCs pertaining to the additive sample being analyzed, Absnegative control is the average well absorbance for RBCs incubated with vehicle (1× DPBS), and Abspositive control is the average well absorbance for RBCs containing 1% Triton X-100. […]
molecule,measurement,setting,value
collagen,Pro-thrombotic profile in PPP,[1],lack of change in pro-thrombotic profiles
CC(C)C[C@@H]1NC(=O)CNC(=O)[C@H](CC(C)C)NC(=O)[C@@H]2CCCN2C(=O)[C@H](CC(C)C)NC(=O)[C@H](CC(=O)O)NC(=O)[C@H](CC(C)C)NC(=O)[C@H](CCCCN)NC(=O)[C@H](CC(C)C)NC(=O)[C@H](CC(=O)O)NC(=O)[C@H](CC(C)C)NC(=O)[C@H](CCCCN)NC(=O)[C@H](CC(C)C)NC(=O)[C@H](CC(=O)O)NC(=O)[C@H](CC(C)C)NC(=O)[C@H](CCCCN)NC(=O)[C@@H](N)CSSC[C@@H](C(N)=O)NC(=O)CNC(=O)[C@H](C)NC1=O [KLDLCyclic] (H-CKLDLKLDLKLDLPLGLAGC-NH2; disulfide 1-20),Stability of viscoelastic properties of resulting gel in the presence of thermolysin,thermolysin,no change for up to 3 days
Triton X-100,%Hemolysis,red blood cells (RBCs),100.00%
